We go through one compound from article PMC7136958, “Targeting the pregnane X receptor using microbial metabolite mimicry” (EMBO Molecular Medicine, 2020).

One experiment addresses T1, PARP 1 (Homo sapiens, UniProt P09874).
T1 construct: purchased Reaction Biology Corp. (RBC) PAR-21-346
Description: PARP assay (Reaction Biology). The settings on record: replicates. Type of experiment: biochemical. On the procedure: (§1) The following […] assays (HDAC, SIRT1, PRMT1, PARP1, p300, pCAF) were performed by Reaction Biology Corp. FKK6 was screened at a single concentration of 10 μM in duplicate in two separate experiments. The appropriate controls for the individual assays are published. The overall […]
(§2) enzyme activity in the assay is reported as a % activity in DMSO control wells. Control IC50 […]
(§3) Briefly, for the Sirtuin (SIRT1) assay, human SIRT1 (GenBank
Accession No. NM012238) full -length N-terminal His-tag protein (MW 83.2 kDa) was purified after expression in E. coli. The reaction buffer was freshly prepared and constituted 50 mM Tris-HC l ( p H 8), 137 mM NaCl, 2.7 mM KCl, 1 mM MgCl2, and just before use, 1 mg/mL BSA and 1% DMSO was added. The substrate was a fluorogenic acetylated peptide of p53 residues 379-382 (RHKK (Ac)- AM C) . In th e multi-well format, the 2X enzyme was mixed with the reaction buffer followed by compound (in 100% DMSO) titration via Acoustic technology (Echo550; LabCyte Inc, Sunnyvale, CA) in the nanoliter range. The mixture was spun down and 2X substrate (including NAD+) was added to initiate the reaction at 30° C at 2h under seal. […] Fluorescence kinetic measurements were conducted for 1.5 h in 15 min intervals using Envision (Ex 360nm/Em 460nm). […] The compound mixture was placed on filter paper and washed with 0.75% phosphoric acid and radioactivity counted. […]

Another experiment concerns the target T2, pCAF (Homo sapiens, UniProt Q92831).
T2 construct: purchased Reaction Biology Corp; host or cells: E. coli
The experiment in a line: Histone acetyltransferase assay pCAF (Reaction Biology). The settings on record: substrate Histone H3, replicates. Type of experiment: biochemical. On the procedure:
as §1, §2, §3
Accession No. NM012238) full -length N-terminal His-tag protein (MW 83.2 kDa) was purified after expression in E. coli. The reaction buffer was freshly prepared and constituted 50 mM Tris-HC l ( p H 8), 137 mM NaCl, 2.7 mM KCl, 1 mM MgCl2, and just before use, 1 mg/mL BSA and 1% DMSO was added. The substrate was a fluorogenic acetylated peptide of p53 residues 379-382 (RHKK (Ac)- AM C) . […]
8), 50 mM NaCl, 0.1 mM EDTA, 1 mM DTT, 1 mM PMSF, and 1% DMSO. […] The radioactivity in mixture is detected on washed filter paper using a scintillation counter. […]
Reader (Perkin Elmer) (Ex 360 nm/ Em 460 nm). For all enzyme activity assays, the percentage of enzyme activity (relative to DMSO controls) and IC50 values were calculated using GraphPad Prism 4 program (sigmoidal dose response equations). […]

The mark [1] stands for this setting: read-out: % Enzyme Activity to DMSO controls.

Each structure is given as a SMILES string. Several values for one entry are separate records, joined by “and”; a condition that tells them apart may be missing. Equal values may be shown once.

T2 sequence (Q92831 492-658): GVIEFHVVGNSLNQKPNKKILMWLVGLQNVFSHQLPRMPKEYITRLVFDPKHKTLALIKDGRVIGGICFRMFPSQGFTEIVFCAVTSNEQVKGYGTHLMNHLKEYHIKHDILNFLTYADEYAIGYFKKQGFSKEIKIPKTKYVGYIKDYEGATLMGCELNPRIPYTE
T1 sequence (P09874 whole entry, species assumed): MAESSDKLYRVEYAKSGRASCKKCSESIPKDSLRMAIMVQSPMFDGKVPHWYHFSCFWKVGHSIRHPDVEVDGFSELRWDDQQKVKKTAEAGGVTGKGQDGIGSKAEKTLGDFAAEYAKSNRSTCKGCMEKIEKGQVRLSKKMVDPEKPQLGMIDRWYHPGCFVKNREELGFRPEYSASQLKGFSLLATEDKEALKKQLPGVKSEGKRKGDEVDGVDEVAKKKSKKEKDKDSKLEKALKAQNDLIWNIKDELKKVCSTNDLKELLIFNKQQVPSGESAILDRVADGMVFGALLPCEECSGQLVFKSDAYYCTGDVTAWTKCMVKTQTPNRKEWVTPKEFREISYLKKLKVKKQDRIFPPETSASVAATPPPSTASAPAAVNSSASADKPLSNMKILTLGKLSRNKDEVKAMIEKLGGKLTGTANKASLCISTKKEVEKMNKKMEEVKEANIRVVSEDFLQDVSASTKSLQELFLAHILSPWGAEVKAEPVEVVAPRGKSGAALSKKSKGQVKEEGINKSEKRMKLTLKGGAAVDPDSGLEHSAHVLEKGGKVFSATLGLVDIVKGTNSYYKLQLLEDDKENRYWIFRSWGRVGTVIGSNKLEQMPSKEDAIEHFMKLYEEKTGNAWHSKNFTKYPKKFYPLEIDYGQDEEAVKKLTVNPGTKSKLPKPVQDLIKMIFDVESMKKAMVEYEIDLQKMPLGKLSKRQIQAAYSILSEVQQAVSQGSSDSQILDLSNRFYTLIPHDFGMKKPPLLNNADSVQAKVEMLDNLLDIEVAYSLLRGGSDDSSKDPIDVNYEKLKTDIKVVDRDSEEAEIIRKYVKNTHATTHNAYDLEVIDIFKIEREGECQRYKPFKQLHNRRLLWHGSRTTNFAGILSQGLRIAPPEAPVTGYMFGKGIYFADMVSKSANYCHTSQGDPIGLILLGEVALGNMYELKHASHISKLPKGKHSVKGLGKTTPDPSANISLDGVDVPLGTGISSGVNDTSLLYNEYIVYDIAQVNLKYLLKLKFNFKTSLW

In the case of `C#CCC(O)(c1ccncc1)c1cc2ccccc2n1S(=O)(=O)c1ccccc1` (stereo not shown) [FKK6], the “% Enzyme Activity to DMSO controls” value is 98.25% and 91.38% and 91.03% on PARP 1 (10 μM); 101.68% and 104.61% and 104.47% at pCAF (10 μM). Also, the figures for the remaining activity at 10 µM at PARP 1 (setting [1]) and at pCAF (setting [1]) were 99.2% and 100%, respectively.
